Starred links: 1 amine or outer side, 2 acyl side, 3 side chain; linkers in the order of their positions; H or OH if unused. Positions of bridges follow the written chain, without caps; N, C: chain ends. Non-standard residues stand in square brackets, D forms with d. Residues, ends and D or L forms follow the SMILES beside them. *: point of attachment. X6 = CCC(C)C(N[*:1])C(O)CC(=O)OC(C(=O)C(C)C(=O)[*:2])C(C)C; Phe(2-Me) = Cc1ccccc1C[CH](N)C(=O)O; NMeY = CN[CH](Cc1ccc(O)cc1)C(=O)O; NMeL = CN[CH](CC(C)C)C(=O)O; Tle = CC(C)(C)[CH](N)C(=O)O; X3 = CC(C)(C)OC(=O)CCC(=O)*; OtBu = CC(C)(C)O*

`CC=C(C)C(=O)NC(c1ccccc1)C(O)C(=O)OC1CC2(O)C(OC(=O)c3ccccc3)C3C4(OC(C)=O)COC4CC(O)C3(C)C(=O)C(OC(C)=O)C(=C1C)C2(C)C` (stereo not given) gave a melting point of 184 to 186 °C.
Next, `CC(=O)N(CC(CO)(CO)CN(Oc1c(I)c(C(=O)N(CCO)CCO)c(I)c(C(=O)N(CCO)CCO)c1I)C(C)=O)Oc1c(I)c(C(=O)N(CCO)CCO)c(I)c(C(=O)N(CCO)CCO)c1I`: 198 °C; `CCC(C=CC(C)C1CCC2C3CC=C4CC(OC(=O)N(CC(COC(c5ccccc5)(c5ccccc5)c5ccccc5)C(=O)NC)C(C)C)CCC4(C)C3CCC12C)C(C)C` (stereo not given): 92 to 93 °C; `O=CCCCCCCOc1ccc(OCc2ccccc2)cc1`: 65 to 67 °C.
In the case of `CC(C)(C)c1cc(-c2nnc(NC(=N)N)o2)cc(C(C)(C)C)c1O`, the melting point was in the range of 223 to 224 °C.
Next, `CCCCCCCCCCCCCC=CC(OC(=O)c1ccccc1)C(COC1OC(COCCC(C(=O)OC(C)(C)C)C(=O)OC(C)(C)C)C(O)C(O)C1O)NC(=O)CCCCCCCCCCCCCCC` (stereo not given): 47.5 to 48.5 °C; `[N-]=[N+]=C(C(=O)OCCN(CCOC(=O)C(=[N+]=[N-])C(=O)C1CCCCC1)CCN(CCOC(=O)C(=[N+]=[N-])C(=O)C1CCCCC1)CCOC(=O)C(=[N+]=[N-])C(=O)C1CCCCC1)C(=O)C1CCCCC1`: 112 to 114 °C; `CCCCCCCCCCCCCCCC(=O)C(O)[C@](O)(C(=O)CCCCCCCCCCCCCCC)[C@@H](O)[C@H](O)[C@@](O)(C(=O)CCCCCCCCCCCCCCC)C(O)C(=O)CCCCCCCCCCCCCCC` (stereo not given in full): 72 to 74 °C.
`COc1cc(OC)c(/C=C/C(c2ccc(OC)c(NCCC(=O)O)c2)S(=O)(=O)C(/C=C/c2c(OC)cc(OC)cc2OC)c2ccc(OC)c(NCCC(=O)O)c2)c(OC)c1` (stereo not given) registered a melting point of 156 to 158 °C.
For `CS(=N)(=O)Cc1ccc(Cl)nc1` (stereo not given), the melting point was 134 to 136 °C.
`Cc1ccccc1CC(NC(=O)C(CCC(=O)OC(C)(C)C)NC(=O)C(CC(=O)OC(C)(C)C)NC(=O)CCC(=O)OC(C)(C)C)C(=O)NC(C(=O)NC(CC(C)C)C(=O)O)C(C)(C)C` (X3-D(OtBu)E(OtBu)[Phe(2-Me)][Tle]L-OH; configuration not given here) returned a melting point of 235 to 236 °C.
`c1ccc(C2CN3CCSC3=N2)cc1` (stereo not given): the melting point lay within 60 to 61.5 °C.
`CC(NC(=O)C(CC(C(=O)O)C(C)(C)C)NC(=O)C(CC(C(=O)O)C(C)(C)C)NC(=O)C(NC(=O)C(N)C(C)C)C(C)C)C(=O)NC(CC(C(=O)O)C(C)(C)C)C(=O)NC(CC(N)=O)C(=O)OC(C)(C)C` (stereo not given): the melting point is 229 to 231 °C.
Next, `NC(=NC(=O)OCc1ccc([N+](=O)[O-])cc1)N(CCSSCCN(C(=O)OCc1ccc([N+](=O)[O-])cc1)C(N)=NC(=O)OCc1ccc([N+](=O)[O-])cc1)C(=O)OCc1ccc([N+](=O)[O-])cc1`: 165 °C.
Next, `CCCCCCCCCCCCCC(=O)NC1C(OCC(=O)O)OC(COC2OC(CO)C(OP(=O)(O)O)C(OC(=O)CNC(=O)CCCCCCCCCCC)C2NC(=O)CCCCCCCCCCCCC)C(O)C1OC(=O)CCCCCCCCCCCCC` (stereo not given): 150 to 155 °C; `CC(C)[C@H](NC(=O)N(C)Cc1ccccn1)C(=O)N[C@@H](Cc1ccccc1)[C@H](O)[C@@H](O)[C@H](Cc1ccccc1)NC(=O)[C@@H](NC(=O)N(C)Cc1csc(N)n1)C(C)C`: 97 to 99 °C.
In turn, `CC(=O)OCC1OC(SCCCCCCOC2CCC3(C)C(=CCC4C3CCC3(C)C(C(C)CCCC(C)C)CCC43)C2)C(OC(C)=O)C(OC(C)=O)C1OC(C)=O` (stereo not given) yielded a melting point of 103 to 104 °C.
Next, `CS(=O)(=O)N1CC=C(C#Cc2ccc3c(c2)NC(=O)CC(c2cccc(C#N)c2)=N3)CC1`: 235 °C.
Next, `CCOC(=O)COc1cccc2c1CCc1sc(S(=O)CC(c3ccccc3)c3ccccc3)nc1-2` (stereo not given): 127 to 129 °C; `Cc1cc(-n2ccnc2)c2cccc(OCc3c(Cl)ccc(S(=O)(=O)N4CCCC4C(=O)NCC4CCN(C(=O)CCCC(=O)OC(C)(C)C)CC4)c3Cl)c2n1` (stereo not given): 112 °C; `COC(=O)C(CCN1C(=O)c2ccccc2C1=O)Oc1c(Br)cc(-c2c3ccccc3c(Br)c3sc4ccccc4c23)cc1Br` (stereo not given): 221 to 222 °C.
Next, `CCCNC(Cc1cc(I)c(Oc2cc(I)c(O)c(I)c2)c(I)c1)C(=O)O` (stereo not given): 212 to 213 °C; `CCCCC1(CC)CS(=O)(=O)c2ccc(N(C)C)cc2C(c2cccc(NC(=O)COCCOCCOCC(=O)NCc3ccc(C4C(CCC(O)c5ccccc5)C(=O)N4c4ccc(F)cc4)cc3)c2)C1O` (stereo not given): 120 °C.
Take `CCOC(=O)c1cc(NCc2c(C)cccc2CC)c2nc(C)n(C)c2c1`: the melting point lay in the range of 171 to 173 °C.
Next, `CC(=O)Nc1c(I)c(C(=O)N(C)CC(O)C(O)C(O)C(O)CO)c(I)c(N(C)C(C)=O)c1I` (stereo not given): 110 to 130 °C; `FC(F)(F)c1ccc(Cl)nc1Cl`: 6 °C.
On to `COC(=O)COC1C(NC(C)=O)C(OCc2ccccc2)OC(COCc2ccccc2)C1OC1(N)OC(COCc2ccccc2)C(OCc2ccccc2)C(OCc2ccccc2)C1C(=O)OCC(Cl)(Cl)Cl` (stereo not given), for which the melting point was in the range of 176 to 178 °C.
Next, `CCCCCC/C(=C\C=C\C(=O)O)c1ccc(OC)cc1`: 88 to 89.5 °C; `Oc1c(Br)c(Br)c(-c2c(Br)c(Br)c(O)c(Br)c2Br)c(Br)c1Br`: 282 °C; `CC(C)(C)c1cc(-c2cc(C(C)(C)C)cc(C(C)(C)C)c2Op2oc3ccccc3c3ccccc3o2)c(Op2oc3ccccc3c3ccccc3o2)c(C(C)(C)C)c1`: 80 °C.
In turn, `CCCCCCCCCCCCN(c1nc(NCC(O)C2CC(C)(C)NC(C)(C)C2)nc(NCC(O)C2CC(C)(C)NC(C)(C)C2)n1)c1nc(NCC(O)C2CC(C)(C)NC(C)(C)C2)nc(NCC(O)C2CC(C)(C)NC(C)(C)C2)n1` (stereo not given) had a melting point of 106 to 110 °C.
`COC(=O)COC1C(NC(C)=O)C(OCc2ccccc2)OC(COCc2ccccc2)C1OC1OC(COCc2ccccc2)C(OCc2ccccc2)C(OCc2ccccc2)C1NC(C)=O` (stereo not given) registered a melting point of 221 to 223 °C.
For `CCCc1nc(C(C)(C)O)c(C(=O)OC2OC(=O)c3ccccc32)n1Cc1ccc(-c2ccccc2-c2nnnn2C(c2ccccc2)(c2ccccc2)c2ccccc2)cc1` (stereo not given), the melting point is 118 to 120 °C.
On to `CCOC(=O)Cc1ccc(-c2nc(COc3ccc(COc4nn(-c5ccccc5)cc4/C=C/c4nc(N5CCN(C(=O)OC(C)(C)C)CC5)sc4C)cc3OC)c(C)o2)cc1`, for which the melting point is 112 to 114 °C.
Consider `Ic1cc(I)c(OCCOc2c(I)cc(I)cc2I)c(I)c1`, for which the melting point is 288 to 289 °C.
Next, `CC1N=C(c2ccccc2)c2cc(Cl)ccc2-n2c1nnc2C(CN(C)C)c1ccccc1` (stereo not given): 200 to 203 °C.
Next, `CN(C)c1ccccn1`: 0 °C.
Next, `COc1ccc(C(=O)c2ccc(OCc3nc(-c4ccccc4)oc3C)cc2)c(O)c1`: 156 to 157 °C.
The molecule `CCCCCCCCCCCCCCCCCCOC(=O)C1(C(=O)OCCCCCCCCCCCCCCCCCC)COC2(CC(C)(C)NC(C)(C)C2)OC1` yielded a melting point of 54 to 56 °C.
Next, `[C-]#[N+]CC(=O)N(c1ccccc1)C(C)C`: 80 to 82 °C; `CCCCCc1nc(C)c(C(=O)OCC)n1Cc1ccc2oc(-c3ccccc3-c3nnn(C(c4ccccc4)(c4ccccc4)c4ccccc4)n3)c(Br)c2c1`: 89 to 90 °C; `CCC1(CC)c2cc(-c3nc4cc5sc(-c6ccc7c(c6)C(CC)(CC)c6cc(N(c8ccccc8)c8ccccc8)ccc6-7)nc5cc4s3)ccc2-c2ccc(N(c3ccccc3)c3ccccc3)cc21`: 180 to 183 °C.
Next, `CC1(C)CC(N(c2nc(N(C3CC(C)(C)NC(C)(C)C3)C3CC(C)(C)NC(C)(C)C3)nc(N(C3CC(C)(C)NC(C)(C)C3)C3CC(C)(C)NC(C)(C)C3)n2)C2CC(C)(C)NC(C)(C)C2)CC(C)(C)N1`: 325 to 330 °C; `CC(=O)Nc1cc(C(=O)NC2OC(COC(C)=O)C(OC3OC(COC(C)=O)C(OC(C)=O)C(OC(C)=O)C3OC(C)=O)C(OC(C)=O)C2OC(C)=O)ccc1Cl` (stereo not given): 122 to 124 °C; `CO/N=C(\C(=O)N[C@@H]1C(=O)N2C(C(=O)OC(C)(C)C)=C(CI)SC[C@H]12)c1nc(C(c2ccccc2)(c2ccccc2)c2ccccc2)sc1N`: 150 °C.
Turning to `CC(=O)OCC(COC(C)=O)NC(=O)c1c(I)c(C(=O)NC(COC(C)=O)COC(C)=O)c(I)c(N2CCC(Br)C2=O)c1I` (stereo not given), the melting point was in the range of 232 to 234 °C.
With `C=CCOC(=O)NC(=O)C(c1ccccc1)c1ccccc1`, the melting point was in the range of 118 to 120 °C.
`Brc1ccc2c(c1)C(CCCCCCCCCCn1c3ccccc3c3ccccc31)(CCCCCCCCCCn1c3ccccc3c3ccccc31)c1cc(Br)ccc1-2` had a melting point of 94 to 96 °C.
`COCCOc1ccc(/C=C(\C)C(=O)NS(=O)(=O)CC(F)(F)F)c(Oc2ncc(C(F)(F)F)cc2Cl)c1`: the melting point fell in the range of 159 to 160 °C.
Next, `CCC(C)C1NC(=O)C(NC(=O)C(CC(C)C)N(C)C(C)=O)C(C)OC(=O)C(Cc2ccc(OC)cc2)N(C)C(=O)C2CCCN2C(=O)C(CC(C)C)NC(=O)C(C)C(=O)C(C(C)C)OC(=O)CC1O` (stereo not given) (Ac-[NMeL]T[X6]LP[NMeY](Me); ester 2-C; configuration not given here): 124 to 126 °C; `CCC(CC)NC(=O)c1ccc(-c2scc(-c3ccccc3Cl)c2CC(=O)OC)cc1`: 57 to 59 °C.
Take `Clc1c(Br)c(Cl)c(COCc2c(Cl)c(Br)c(Cl)c(Br)c2Br)c(Br)c1Br`: the melting point is 274 to 276 °C.
In turn, `CCCCCCCCNc1nc(NCCCCC2CC(C)(C)N(OCC(C)(C)O)C(C)(C)C2)nc(NCCCCC2CC(C)(C)N(OCC(C)(C)O)C(C)(C)C2)n1` came in with a melting point of 68 to 86 °C.
Next, `CCCCCCCCCS(=O)(=O)c1c(S(=O)(=O)CCCCCCCCC)c(S(=O)(=O)CCCCCCCCC)c(S(=O)(=O)CCCCCCCCC)c(S(=O)(=O)CCCCCCCCC)c1S(=O)(=O)CCCCCCCCC`: 95 °C.
Next, `CCCCN(c1nc(N(CCCC)C2CC(C)(C)N(OC3CCCCC3)C(C)(C)C2)nc(N(CCCC)C2CC(C)(C)N(OC3CCCCC3)C(C)(C)C2)n1)C1CC(C)(C)N(OC2CCCCC2)C(C)(C)C1`: 189 to 194 °C.

In general, melting point refers to the temperature, or range, at which the solid turns liquid.
